Where “and” joins values, the source holds several entries; their conditions need not be identical. Identical values can stand only once.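 Tested at 5 concentrations; 48 h exposure; 96-well plates; endpoints linearly interpolated, else capped at highest concentration. Abbreviation: GI50, concentration required for 50% inhibition of growth. Definition used: TGI = concentration required for complete inhibition of growth.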
Tests used:
Assay in all cases: DTP human tumour cell line panel, 48 h
ACHN renal = system: ACHN renal
COLO 205 colon = system: COLO 205 colon
HCT-116 colon = system: HCT-116 colon
HT29 colon = system: HT29 colon
IGROV1 ovarian = system: IGROV1 ovarian
LOX IMVI melanoma = system: LOX IMVI melanoma
MALME-3M melanoma = system: MALME-3M melanoma
NCI-H522 lung = system: NCI-H522 lung
NCI/ADR-RES ovarian = system: NCI/ADR-RES ovarian
SK-OV-3 ovarian = system: SK-OV-3 ovarian
SR leukemia = system: SR leukemia

SMILES	TGI (ACHN renal)	TGI (COLO 205 colon)	TGI (HCT-116 colon)	TGI (HT29 colon)	TGI (IGROV1 ovarian)	TGI (LOX IMVI melanoma)	TGI (MALME-3M melanoma)	TGI (NCI-H522 lung)	TGI (NCI/ADR-RES ovarian)	TGI (SK-OV-3 ovarian)	TGI (SR leukemia)	GI50 (NCI/ADR-RES ovarian)	GI50 (MALME-3M melanoma)	GI50 (NCI-H522 lung)
COC(=O)C1(OC(=O)Sc2ccccc2)CCN(C)CC1	> 54.1 µM	29.8 µM	53.6 µM	58 µM	18.7 µM	28.4 µM	> 100 µM	35.1 µM	> 48.4 µM	> 69.1 µM	35.7 µM	–	–	–
COc1ccc(C(=O)/C=C/c2ccncc2)cc1OC	28.1 µM	29.1 µM	18.9 µM	21.7 µM	26.6 µM	3.05 µM	32.5 µM	21.7 µM	42.7 µM	30.9 µM	> 100 µM	–	–	–
Nc1nc2c(ncn2Cc2ccc(CO)cc2)c(=O)[nH]1	> 100 µM	> 100 µM	> 100 µM	> 100 µM	> 100 µM	> 100 µM	> 100 µM	> 100 µM	> 100 µM	> 100 µM	> 100 µM	–	–	–
CN(C)/C=N/n1c2ccccc2c2ccccc21	> 100 µM	> 100 µM	> 100 µM	> 100 µM	> 100 µM	> 100 µM	> 100 µM	> 100 µM	> 100 µM	> 100 µM	> 100 µM	–	–	–
COc1ccc(N2C(=O)CS(=O)(=O)C2c2cccc(Oc3ccccc3)c2)cc1 (stereo unspecified)	32.8 µM	11.4 µM	5.88 µM	50.9 µM	–	29.5 µM	54.6 µM	13.8 µM	15.4 µM	> 100 µM	8.48 µM	–	–	–
O=S(=O)(O)c1ccc(N=Nc2ccc(N=Nc3c(O)ccc4ccccc34)cc2)cc1	> 100 µM	> 100 µM	> 100 µM	> 100 µM	> 100 µM	> 100 µM	> 100 µM	> 100 µM	> 100 µM	> 100 µM	> 100 µM	–	–	–
O=C(c1cc(Cl)cc(Cl)c1)N1CCN(C(=O)c2cc(Cl)cc(Cl)c2)C1=S	29.6 µM	35.2 µM	30 µM	51.9 µM	32.8 µM	11.6 µM	25.5 µM	25.7 µM	> 100 µM	29.8 µM	11.3 µM	31.7 µM	–	–
CN1CCN(CN2C(=O)C3C4C=CC(C3C2=O)C2C(=O)N(CN3CCN(C)CC3)C(=O)C42)CC1 (stereo unspecified)	> 100 µM	> 100 µM	> 62.1 µM	49.3 µM	> 100 µM	> 63 µM	> 92 µM	> 59.5 µM	> 100 µM	> 100 µM	> 100 µM	–	–	–
C[C@H]1C2Cc3cc(N)ccc3[C@@]1(C)CCN2CCc1ccccc1	> 100 µM	32.9 µM	> 100 µM	> 100 µM	> 100 µM	41.2 µM	54 µM	31.5 µM	> 100 µM	> 100 µM	> 100 µM	–	–	–
O=C1NN=C2C=C(c3ccc(Cl)cc3)CC(c3cccc(Cl)c3)C12 (stereo unspecified)	48.2 µM	35.8 µM	41 µM	51.4 µM	59.1 µM	33.4 µM	> 100 µM	42.8 µM	> 100 µM	> 100 µM	41.7 µM	–	–	–
O=C1C[C@H]2[C@@H](O1)[C@@H](O)CN1C(=O)c3ccccc3[C@H]21	> 100 µM	> 100 µM	> 100 µM	> 100 µM	> 100 µM	> 100 µM	> 100 µM	> 100 µM	> 100 µM	> 100 µM	> 100 µM	–	–	–
CCOC(=O)c1ccc(C(=O)/C(C#N)=C2\CCCN2C)[nH]1	> 100 µM	> 100 µM	> 100 µM	> 100 µM	> 100 µM	> 100 µM	> 100 µM	> 100 µM	> 100 µM	–	> 100 µM	–	–	–
O=[N+]([O-])c1ccc(S(=O)(=O)N=Ic2ccccc2)cc1	> 100 µM	> 100 µM	> 100 µM	> 100 µM	> 100 µM	> 100 µM	> 100 µM	> 100 µM	> 100 µM	> 100 µM	> 100 µM	–	–	–
NCCCNCCCCNCCCN	9.22 µM	11.8 µM	8.78 µM	76.5 µM	33.8 µM	30.5 µM	> 100 µM	0.879 µM	> 91.6 µM	> 53.9 µM	> 36.8 µM	–	–	–
Cc1ccc(-c2c3c(n(C4OC(CO)C(O)C(O)C4O)c(=S)c2C#N)CC(C)(C)CC3=O)cc1 (stereo unspecified)	> 100 µM	–	> 100 µM	> 100 µM	> 100 µM	> 100 µM	> 100 µM	> 100 µM	> 100 µM	–	> 100 µM	–	–	–
O=c1cc(-c2ccccc2)[nH]c2c(S)cccc12	> 100 µM	> 100 µM	> 100 µM	> 100 µM	> 100 µM	–	> 100 µM	> 100 µM	> 100 µM	> 100 µM	> 100 µM	–	–	–

SMILES	TGI (ACHN renal)	TGI (COLO 205 colon)	TGI (HCT-116 colon)	TGI (HT29 colon)	TGI (IGROV1 ovarian)	TGI (LOX IMVI melanoma)	TGI (MALME-3M melanoma)	TGI (NCI-H522 lung)	TGI (NCI/ADR-RES ovarian)	TGI (SK-OV-3 ovarian)	TGI (SR leukemia)	GI50 (NCI/ADR-RES ovarian)	GI50 (MALME-3M melanoma)	GI50 (NCI-H522 lung)
COc1ccc(C(O)c2nccn2C)c(OC)c1 (stereo unspecified)	> 100 µM	> 100 µM	> 100 µM	> 100 µM	> 100 µM	–	> 100 µM	> 100 µM	> 100 µM	> 100 µM	> 100 µM	–	–	–
COc1ccc(OC)c(C2Cc3cnc4nc(N)nc(N)c4c3C2)c1 (stereo unspecified)	> 100 µM	49 µM	55.1 µM	> 100 µM	50.2 µM	47.6 µM	47.3 µM	64.3 µM	> 100 µM	> 100 µM	44.9 µM	–	–	–
Cn1c(N)c2c3c(sc2nc1=O)CCCC3	> 75 µM	> 75 µM	> 75 µM	> 75 µM	> 75 µM	> 75 µM	> 75 µM	> 75 µM	> 75 µM	–	> 75 µM	–	–	–
Cc1c(CNc2ccc(C(=O)NC(CC(=O)O)C(=O)O)cc2)ccc2nc(N)nc(N)c12 (stereo unspecified)	> 1000 µM	–	> 1000 µM	> 1000 µM	> 1000 µM	> 1000 µM	> 1000 µM	> 73.8 µM and 691 µM	> 1000 µM	–	> 1000 µM	–	< 0.01 µM	0.57 µM
O=P(O)(Cc1ccccc1)c1ccccc1-c1ccccc1	> 100 µM	> 100 µM	> 100 µM	> 100 µM	> 100 µM	> 100 µM	> 100 µM	> 100 µM	> 100 µM	> 100 µM	> 100 µM	–	–	–
CCO/C=N/NC(=O)CSc1nc2ccc(I)cc2c(=O)n1Cc1ccccc1	> 100 µM	> 100 µM	> 100 µM	> 100 µM	> 100 µM	> 100 µM	–	13.3 µM	> 100 µM	> 100 µM	> 100 µM	–	–	–
COc1ccc(C(OCC2OC(n3cc(C)c(=O)[nH]c3=O)CC2n2cc(Cn3cc(Br)c(=O)[nH]c3=O)nn2)(c2ccccc2)c2ccccc2)cc1 (stereo unspecified)	> 100 µM	> 100 µM	> 100 µM	> 100 µM	> 100 µM	> 100 µM	> 100 µM	> 100 µM	> 100 µM	> 100 µM	> 100 µM	–	–	–
CC(C)(C)C(=O)OC(N)/C=C/c1ccccc1 (stereo unspecified)	> 100 µM	> 100 µM	> 100 µM	> 100 µM	> 100 µM	–	> 100 µM	> 100 µM	> 100 µM	> 100 µM	> 100 µM	–	–	–
C[C@@]12CCC3C1C=C1C(=O)c4cc(O)ccc4C(=O)[C@]1(O2)[C@@]3(C)C=O	17.1 µM	19.5 µM	12.8 µM	20.9 µM	19.6 µM	11.2 µM	–	11.4 µM	49.5 µM	21.5 µM	5.89 µM	–	–	–
CC1(C)OC2C(O)CN3CCS[C@H]3C2O1 (stereo partly specified)	> 100 µM	> 100 µM	> 100 µM	> 100 µM	> 100 µM	> 100 µM	> 100 µM	> 100 µM	> 100 µM	> 100 µM	> 100 µM	–	–	–
CC(=O)Nc1ccc(-c2nc3cc(Cl)ccc3o2)cc1	> 50 µM	> 50 µM	> 50 µM	> 50 µM	> 50 µM	> 50 µM	> 50 µM	> 50 µM	> 50 µM	> 50 µM	> 50 µM	–	–	–
N#C/C(N)=C(\C#N)NC=NCc1ccccc1	> 100 µM	> 100 µM	> 100 µM	> 100 µM	> 100 µM	> 100 µM	> 100 µM	> 100 µM	> 100 µM	> 100 µM	> 100 µM	–	–	–
CCCCCC(/C=C/C1CCC(=O)C1CC#C[Si](C)(C)C)OCc1ccccc1 (stereo unspecified)	31.6 µM	39.3 µM	34.9 µM	31.1 µM	28.7 µM	35.8 µM	37.8 µM	28.6 µM	41.8 µM	> 100 µM	> 57.4 µM	–	–	–
Cc1cc(C)nc(NS(=O)(=O)c2ccc(NNC(=O)c3cccc4c(=O)c5ccccc5[nH]c34)cc2)n1	> 100 µM	> 100 µM	> 100 µM	> 100 µM	> 100 µM	> 100 µM	> 100 µM	> 100 µM	> 100 µM	> 100 µM	> 100 µM	–	–	–
CC(=O)Nc1ccc2cc(C)c(=O)[nH]c2n1	> 100 µM	> 100 µM	> 100 µM	> 100 µM	> 100 µM	–	> 100 µM	> 100 µM	> 100 µM	> 100 µM	> 100 µM	–	–	–
